Here are results for 22 compounds from patent US12391671B2, “Allosteric EGFR inhibitors and methods of use thereof” (Dana-Farber Cancer Institute, Inc., priority 2019, dated 2025).

Structures can show the parent of a compound that is named as a salt. Where two headings read alike, the source gives them in different places.

The target of one assay is EGFR L858R/T790M (Homo sapiens (Human), UniProt P00533, L858R/T790M). Briefly: HTRF-based EGFR biochemical assay (L858R/T790M). Conditions: 100 μM ATP, enzyme 0.02 nM. As to the method: (§1) Example 25: HTRF-Based EGFR Biochemical Assays
(§2) EGFR biochemical activity measurements were carried out using the homogeneous time-resolved fluorescence (HTRF) assay (Cisbio), inhibitors and DMSO normalizations were first dispensed to empty black low-volume 384-well plates (Corning) with 0300 digital liquid dispenser (HP). All reactions were carried out at room temperature and solutions were added to plates with a Multidrop Combi Reagent Dispenser (ThermoFisher). The reaction mixture (10 μL final volume) contained 1 μM tyrosine kinase peptide-biotin substrate and mutant EGFR in a reaction buffer (50 mM HEPES pH 7.0, 5 mM MgCl2, 1 mM MnCl2, 0.01% BSA, 2 mM TCEP, 0.1 mM NaVO4). Enzyme concentrations were adjusted to accommodate varying kinase activities (L858R 0.1 nM, L858R/T790M 0.02 nM). Enzyme reaction solution (2× concentrations, 5 μL) was added to 384-well plates containing compounds and incubated for 30 mins. Enzyme reactions were initiated with the addition of 5 μL of ATP to a final concentration of 100 μM and reacted for 20 mins. Reactions were quenched with the addition of 10 μL of phospho-tyrosine antibody-Europium(III) cryptate (1-to-180 volume ratio) and Streptavidin-XL665 (46.7 nM) in EDTA-containing detection buffer, then incubated at room temperature for 1 hour, and read with a PHERAstar plate reader (excitation=337 nm, emission=620 nm and 665 nm).
On the technique in general: In TR-FRET formats the signal depends on donor and acceptor labels being close together.

Another assay addresses EGFR L858R (Homo sapiens (Human), UniProt P00533, L858R). Briefly: HTRF-based EGFR biochemical assay (L858R). The settings on record: 100 μM ATP, enzyme 0.1 nM. The method, then:
as §1, §2

For assay [1], the system named is EGFR mutant L858R/T790M Ba/F3 cells. Put plainly: Ba/F3 cell proliferation model (Cell Titer Glo), EGFR L858R/T790M. It counts as cell-based, murine. The settings on record: 72 hours. The source says: Example 26: Ba/F3 Cell Proliferation Models
The EGFR mutant L858R and L858R/T790M Ba/F3 cells have been previously described (Zhou, W., et al. Nature 462, 2009, 1070-1074). All cell lines were maintained in RPM 1640 (Cellgro; Mediatech Inc., Herndon. CA) supplemented with 10% FBS, 100 units/mL penicillin, 100 units/mL streptomycin. The EGFR I941R mutation was introduced via site directed mutagenesis using the Quick Change Site-Directed Mutagenesis kit (Stratagene; La Jolla, CA) according to the manufacturer's instructions. All constructs were confirmed by DNA sequencing. The constructs were shuttled into the retroviral vector JP1540 using the Cre-recombination system (Agilent Technologies, Santa Clara, CA). Ba/F3 cells were then infected with retrovirus per standard protocols, as described previously (Zhou, et al, Nature 2009). Stable clones were obtained by selection in puromycin (2 μg/ml).
Growth and inhibition of growth was assessed by the Cell Titer Glo® assay (Promega, Madison, WI) and was performed according to the manufacturer's instructions. The Cell Titer Glo® assay is a luminescence-based method used to determine the number of viable cells based on quantitation of the ATP present, which is directly proportional to the amount of metabolically active cells present. Ba/F3 cells of different EGFR genotypes were exposed to compounds as a single agent or in combination with 1 μg/mL cetuximab for 72 hours and the number of cells used per experiment was determined empirically as has been previously established (Zhou, et al., Nature 2009). All experimental points were set up in triplicates in 384-well plates and all experiments were repeated at least three times. […] The curves were fitted using a non-linear regression model with a sigmoidal dose response.

Chain of EGFR L858R/T790M (P00533 25-1210 T790M/L858R): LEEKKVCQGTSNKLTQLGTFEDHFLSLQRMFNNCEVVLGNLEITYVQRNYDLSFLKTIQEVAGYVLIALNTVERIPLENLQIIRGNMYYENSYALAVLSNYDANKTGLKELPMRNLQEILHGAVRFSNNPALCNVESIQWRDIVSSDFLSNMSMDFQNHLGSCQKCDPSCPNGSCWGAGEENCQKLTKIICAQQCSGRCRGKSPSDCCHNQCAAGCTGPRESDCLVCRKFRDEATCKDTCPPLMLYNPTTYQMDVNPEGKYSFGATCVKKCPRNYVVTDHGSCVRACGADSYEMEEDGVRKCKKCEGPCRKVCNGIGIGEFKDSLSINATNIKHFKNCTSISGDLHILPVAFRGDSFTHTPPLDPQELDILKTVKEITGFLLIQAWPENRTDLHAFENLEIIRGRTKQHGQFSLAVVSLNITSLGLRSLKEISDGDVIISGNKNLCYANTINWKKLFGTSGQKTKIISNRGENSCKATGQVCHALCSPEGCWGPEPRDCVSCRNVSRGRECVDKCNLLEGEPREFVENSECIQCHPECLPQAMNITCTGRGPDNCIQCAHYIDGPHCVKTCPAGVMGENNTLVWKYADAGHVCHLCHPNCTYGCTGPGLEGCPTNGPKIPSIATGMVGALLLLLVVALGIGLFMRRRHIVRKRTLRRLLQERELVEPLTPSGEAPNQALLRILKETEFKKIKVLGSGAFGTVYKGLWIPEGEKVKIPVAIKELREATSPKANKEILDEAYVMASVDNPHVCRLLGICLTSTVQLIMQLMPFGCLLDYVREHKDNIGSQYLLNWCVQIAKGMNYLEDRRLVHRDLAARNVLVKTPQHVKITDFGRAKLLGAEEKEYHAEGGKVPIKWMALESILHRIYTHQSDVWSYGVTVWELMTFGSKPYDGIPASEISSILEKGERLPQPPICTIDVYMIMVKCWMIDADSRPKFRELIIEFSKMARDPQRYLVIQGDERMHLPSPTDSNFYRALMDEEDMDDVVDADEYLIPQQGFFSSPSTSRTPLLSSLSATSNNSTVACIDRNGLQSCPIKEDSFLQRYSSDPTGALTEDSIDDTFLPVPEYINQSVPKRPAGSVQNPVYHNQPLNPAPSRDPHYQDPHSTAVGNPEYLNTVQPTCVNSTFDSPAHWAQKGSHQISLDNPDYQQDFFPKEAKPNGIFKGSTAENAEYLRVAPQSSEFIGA
Chain of EGFR L858R (P00533 25-1210 L858R): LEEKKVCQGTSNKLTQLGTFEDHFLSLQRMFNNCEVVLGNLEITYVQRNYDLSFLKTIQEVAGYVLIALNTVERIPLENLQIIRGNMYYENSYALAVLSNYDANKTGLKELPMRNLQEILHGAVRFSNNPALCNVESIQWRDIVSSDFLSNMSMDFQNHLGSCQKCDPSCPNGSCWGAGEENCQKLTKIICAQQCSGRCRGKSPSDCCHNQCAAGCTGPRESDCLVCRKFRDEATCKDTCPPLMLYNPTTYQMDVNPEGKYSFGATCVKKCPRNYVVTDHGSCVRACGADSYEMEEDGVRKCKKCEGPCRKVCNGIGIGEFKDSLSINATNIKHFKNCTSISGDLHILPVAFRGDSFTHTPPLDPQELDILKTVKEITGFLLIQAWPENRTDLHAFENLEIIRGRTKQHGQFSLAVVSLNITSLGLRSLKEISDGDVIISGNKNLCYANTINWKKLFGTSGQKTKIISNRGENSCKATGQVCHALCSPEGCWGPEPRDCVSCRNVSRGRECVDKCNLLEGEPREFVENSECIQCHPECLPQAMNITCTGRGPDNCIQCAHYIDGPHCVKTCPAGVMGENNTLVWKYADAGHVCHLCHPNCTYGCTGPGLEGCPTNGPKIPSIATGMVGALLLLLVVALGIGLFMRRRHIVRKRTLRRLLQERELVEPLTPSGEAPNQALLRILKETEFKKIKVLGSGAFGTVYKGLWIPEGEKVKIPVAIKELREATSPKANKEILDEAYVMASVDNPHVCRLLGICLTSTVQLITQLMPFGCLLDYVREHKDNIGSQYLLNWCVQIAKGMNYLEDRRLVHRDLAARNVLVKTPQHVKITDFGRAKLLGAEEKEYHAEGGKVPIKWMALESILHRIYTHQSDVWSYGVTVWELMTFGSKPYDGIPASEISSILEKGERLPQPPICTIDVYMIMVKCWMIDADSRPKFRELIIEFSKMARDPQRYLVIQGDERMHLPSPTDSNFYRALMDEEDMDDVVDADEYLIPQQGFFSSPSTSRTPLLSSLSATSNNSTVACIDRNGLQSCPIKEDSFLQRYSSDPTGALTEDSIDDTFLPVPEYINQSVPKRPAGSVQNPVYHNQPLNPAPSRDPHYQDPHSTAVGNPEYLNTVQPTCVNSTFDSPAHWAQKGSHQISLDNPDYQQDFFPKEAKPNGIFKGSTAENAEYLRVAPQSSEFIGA

For the compound `CN1CCC(c2ccc(-c3ccc4c(c3)C(=O)N(C(c3nc5cnccc5[nH]3)c3cc(F)ccc3O)C4)cc2)CC1` (stereo not shown) [Compound 015, 2-[(5-Fluoro-2-hydroxy-phenyl)-(1H-imidazo[4,5-c]pyridin-2-yl)methyl]-6-[4-(1-methyl-4-piperidyl)phenyl]isoindolin-1-one;hydrochloride], the IC50 on EGFR L858R/T790M is 2 nM; on EGFR L858R it was 15 nM; in assay [1] (Mus musculus, BaF3, single agent, read-out: Cell IC50 BaF3 EGFR L858R/T790M) it was 1100 nM; in assay [1] (in combination with 1 μg/mL cetuximab, read-out: Cell IC50 BaF3 EGFR L858R/T790M (+cetux.)) it was 20 nM.
Take `CN1CCC(c2ccc(-c3ccc4c(=O)n(C(c5nc6ccccc6[nH]5)c5cc(F)ccc5O)ccc4c3)cc2F)CC1` (stereo not shown) [Compound 109, 2-[1H-Benzimidazol-2-yl-(5-fluoro-2-hydroxy-phenyl)methyl]-6-[3-fluoro-4-(1-methyl-4-piperidyl)phenyl]isoquinolin-1-one; dihydrochloride]: the IC50 on EGFR L858R/T790M stood at 2 nM; on EGFR L858R, 4 nM.
Regarding `CN1CCC(c2ccc(-c3ccc4cn(C(c5nc6c(F)cccc6[nH]5)c5cc(F)ccc5O)nc4c3F)cc2)CC1` (stereo not shown) [Compound 101, 4-Fluoro-2-((4-fluoro-1H-benzo[d]-imidazol-2-yl)(7-fluoro-6-(4-(1-methylpiperidin-4-yl)phenyl)-2H-indazol-2-yl)methyl)phenol; trifluoroacetate], the IC50 at EGFR L858R/T790M is 0.8 nM; on EGFR L858R it was 4 nM.
Regarding `Cc1cnc(C(c2cc(F)ccc2O)N2Cc3ccc(-c4ccc(C5CCN(C)CC5)cc4)c(F)c3C2=O)[nH]1` (stereo not shown) [Compound 093, 7-Fluoro-2-[(5-fluoro-2-hydroxy-phenyl)-(5-methyl-1H-imidazol-2-yl)methyl]-6-[4-(1-methyl-4-piperidyl)phenyl]isoindolin-1-one], the IC50 against EGFR L858R/T790M amounted to 4 nM; against EGFR L858R, 3 nM.
For the compound `CN1CCC(c2ccc(-c3ccc4c(n3)C(=O)N([C@@H](c3nc5ccccc5[nH]3)c3cc(F)ccc3O)C4)cc2)CC1` (single isomer, unassigned) [Compound 106], the IC50 against EGFR L858R/T790M was 0.8 nM; against EGFR L858R it was 3 nM.
The corresponding values for `CN1CCC(c2ccc(-c3cc(F)c4c(=O)n([C@H](c5nc6ccccc6[nH]5)c5cc(F)ccc5O)ccc4c3)cc2)CC1` (single isomer, unassigned) [Compound 066] are 3 nM and 14 nM.
Taken in the same sequence, the figures for `Cc1cc2cn(C(c3nc4ccccc4[nH]3)c3cc(F)ccc3O)nc2cc1-c1ccc(C2CCN(C)CC2)cc1` (stereo not shown) [Compound 098, 2-[1H-Benzimidazol-2-yl-[5-methyl-6-[4-(1-methyl-4-piperidyl)phenyl]-indazol-2-yl]methyl]-4-fluoro-phenol; dihydrochloride] were 4 nM and 6 nM.
`CN1CCC(c2ccc(-c3ccc4c(c3)C(=O)N([C@@H](c3nc5ccccc5[nH]3)c3cc(F)ccc3O)C4)cc2)CC1` (single isomer, unassigned) [Compound 038]: the IC50 against EGFR L858R/T790M worked out at 6 nM; against EGFR L858R it was 18 nM.
Consider `CN1CCC(c2ccc(-c3cc(F)c4c(=O)n([C@H](c5nc6ccccc6[nH]5)c5cc(F)ccc5O)ccc4c3)cc2)CC1` (single isomer, unassigned) [Compound 117, 2-[1H-Benzimidazol-2-yl-(5-fluoro-2-hydroxy-phenyl)methyl-8-fluoro-6-[3-fluoro-4-(1-methyl-4-piperidyl)phenyl]isoquinolin-1-one; dihydrochloride], for which the IC50 against EGFR L858R/T790M (dihydrochloride) was 81 nM; against EGFR L858R (dihydrochloride) it was over 100 nM.
For `CN1CCC(c2ccc(-c3ccc4c(=O)n([C@@H](c5nc6ccccc6[nH]5)c5cc(F)ccc5O)ccc4c3)cc2)CC1` (single isomer, unassigned) [Compound 114], the IC50 on EGFR L858R/T790M came out at 0.9 nM; on EGFR L858R it was 2 nM.
Taken in the same sequence, the figures for `Cc1c[nH]c([C@H](c2cc(F)ccc2O)N2Cc3ccc(-c4ccc(C5CCN(C)CC5)cc4)cc3C2=O)n1` (single isomer, unassigned) [Compound 105] were 49 nM and 65 nM.
With `CN1CCC(c2ccc(-c3cc(F)c4c(=O)n(C(c5nc6ccccc6[nH]5)c5cc(F)ccc5O)ccc4c3)cc2F)CC1` (stereo not shown) [Compound 111, 2-[1H-Benzimidazol-2-yl-(5-fluoro-2-hydroxy-phenyl)methyl]-8-fluoro-6-[3-fluoro-4-(1-methyl-4-piperidyl)-phenyl]isoquinolin-1-one; dihydrochloride], the IC50 worked out at 0.6 nM against EGFR L858R/T790M and 3 nM against EGFR L858R.
As for `Cc1c[nH]c([C@H](c2cc(F)ccc2O)N2Cc3ccc(-c4ccc(C5CCN(C)CC5)cc4)c(F)c3C2=O)n1` (single isomer, unassigned) [Compound 095], the IC50 was 59 nM against EGFR L858R/T790M and 92 nM against EGFR L858R.
The corresponding values for `CN1CCC(c2ccc(-c3ccc4c(=O)n([C@@H](c5nc6ccccc6[nH]5)c5cc(F)ccc5O)ccc4c3)cc2)CC1` (single isomer, unassigned) [Compound 067] are 4 nM and 11 nM.
Taken in the same sequence, the figures for `COc1cc2cn(C(c3nc4ccccc4[nH]3)c3cc(F)ccc3O)nc2cc1-c1ccc(C2CCN(C)CC2)cc1` (stereo not shown) [Compound 099, 2-[1H-Benzimidazol-2-yl-[5-methoxy-6-[4-(1-methyl-4-piperidyl)phenyl]indazol-2-yl]methyl]-4-fluoro-phenol] were 8 nM and 10 nM.
As to `CN1CCC(c2ccc(-c3cc(F)c4c(=O)n([C@@H](c5nc6ccccc6[nH]5)c5cc(F)ccc5O)ccc4c3)cc2)CC1` (single isomer, unassigned) [Compound 116, dihydrochloride], the IC50 on EGFR L858R/T790M (dihydrochloride) amounted to 0.2 nM; on EGFR L858R (dihydrochloride), 0.8 nM.
For `Cc1c(-c2ccc(C3CCN(C)CC3)cc2)ccc2cn(C(c3nc4ccccc4[nH]3)c3cc(F)ccc3O)nc12` (stereo not shown) [Compound 096, 2-[1H-Benzimidazol-2-yl-[7-methyl-6-[4-(1-methyl-4-piperidyl)phenyl]indazol-2-yl]methyl]-4-fluoro-phenol; dihydrochloride], the IC50 came out at 0.8 nM against EGFR L858R/T790M and 3 nM on EGFR L858R.
The corresponding values for `CN1CCC(c2ccc(-c3ccc4c(n3)C(=O)N([C@H](c3nc5ccccc5[nH]3)c3cc(F)ccc3O)C4)cc2)CC1` (single isomer, unassigned) [Compound 107] are 17 nM and 71 nM.
The corresponding values for `CN1CCC2(c3ccc(-c4ccc5c(=O)n(C(c6nc7ccccc7[nH]6)c6cc(F)ccc6O)ccc5c4)cc3)CC2C1` (stereo not shown) [Compound 108, 2-[1H-Benzimidazol-2-yl-(5-fluoro-2-hydroxy-phenyl)methyl]-6-[4-(3-methyl-3-azabicyclo[4.1.0]heptan-6-yl)phenyl]isoquinolin-1-one; dihydrochloride] are 2 nM and 5 nM.
Taken in the same sequence, the figures for `CN1CCC(c2ccc(-c3ccc4c(=O)n(C(c5nc6c(F)cccc6[nH]5)c5cc(F)ccc5O)ccc4c3)cc2)CC1` (stereo not shown) [Compound 102, 2-((4-Fluoro-1H-benzo[d]imidazol-2-yl)(5-fluoro-2-hydroxyphenyl)methyl)-6-(4-(1-methylpiperidin-4-yl)phenyl)isoquinolin-1(2H)-one] were 4 nM and 6 nM.
For `CN1CCC(c2ccc(-c3ccc4c(=O)n([C@H](c5nc6ccccc6[nH]5)c5cc(F)ccc5O)ccc4c3)cc2)CC1` (single isomer, unassigned) [Compound 068], the IC50 at EGFR L858R/T790M amounted to 166 nM; against EGFR L858R it was 756 nM.
Taken in the same sequence, the figures for `CN1CCC(c2ccc(-c3cc4nn(C(c5nc6ccccc6[nH]5)c5cc(F)ccc5O)cc4cc3O)cc2)CC1` (stereo not shown) [Compound 097, 2-[1H-Benzimidazol-2-yl-(5-fluoro-2-hydroxy-phenyl)methyl]-6-[4-(1-methyl-4-piperidyl)phenyl]indazol-5-ol] were 36 nM and 16 nM.
